Activity calls are given as the source filed them.
Key:
[1] = target: T1, Calpain-2 catalytic subunit (Sus scrofa, UniProt P43367); assay: pig calpain II inhibitor potency, dose response, biochemical, fluorogenic peptide substrate (AID 1420); type: functional
T1 sequence (P43367 whole entry): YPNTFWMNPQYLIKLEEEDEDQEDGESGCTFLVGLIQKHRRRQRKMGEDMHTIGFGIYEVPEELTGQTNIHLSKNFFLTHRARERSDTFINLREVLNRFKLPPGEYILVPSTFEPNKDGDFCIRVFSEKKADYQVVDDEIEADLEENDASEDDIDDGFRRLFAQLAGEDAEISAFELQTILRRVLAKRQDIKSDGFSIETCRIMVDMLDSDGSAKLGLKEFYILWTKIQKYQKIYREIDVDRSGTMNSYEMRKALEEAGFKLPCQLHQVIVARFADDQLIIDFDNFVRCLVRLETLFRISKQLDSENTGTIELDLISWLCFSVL

Cytochrome P450 2D6 = Cytochrome P450 2D6 (Homo sapiens, UniProt P10635);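 further: CYP2D6 member of a cytochrome P450 panel assay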
Protein skinhead-1 = target: T2, Protein skinhead-1 (Caenorhabditis elegans, UniProt P34707); type: functional
T2 sequence (P34707 whole entry): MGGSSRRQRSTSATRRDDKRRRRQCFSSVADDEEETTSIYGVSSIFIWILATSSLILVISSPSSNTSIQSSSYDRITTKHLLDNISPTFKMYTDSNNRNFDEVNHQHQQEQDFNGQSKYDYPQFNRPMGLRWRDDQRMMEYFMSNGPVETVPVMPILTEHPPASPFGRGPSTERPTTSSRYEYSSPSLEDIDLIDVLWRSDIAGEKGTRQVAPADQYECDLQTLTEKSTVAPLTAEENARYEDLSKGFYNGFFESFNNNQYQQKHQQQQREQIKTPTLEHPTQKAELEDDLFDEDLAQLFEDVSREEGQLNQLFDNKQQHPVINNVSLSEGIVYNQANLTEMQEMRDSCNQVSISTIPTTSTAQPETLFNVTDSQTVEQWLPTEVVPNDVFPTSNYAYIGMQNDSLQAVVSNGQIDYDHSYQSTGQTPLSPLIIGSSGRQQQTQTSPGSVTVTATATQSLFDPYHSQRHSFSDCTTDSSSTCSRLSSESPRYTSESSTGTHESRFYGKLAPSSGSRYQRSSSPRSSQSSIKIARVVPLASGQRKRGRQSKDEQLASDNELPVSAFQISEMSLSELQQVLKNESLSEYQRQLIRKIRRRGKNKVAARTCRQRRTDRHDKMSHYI

Cytochrome P450 2C19 = Cytochrome P450 2C19 (Homo sapiens, UniProt P33261); assay: Cytochrome panel assay with activity outcomes. Panel member name: p450-cyp2c19 Compounds with AC50 equal or less than 10 uM are considered active; type: functional
Cytochrome P450 1A2 = target: T3, Cytochrome P450 1A2 (Homo sapiens, UniProt P05177);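 further: PubChem cytochrome P450 panel assay, CYP1A2 panel member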
T3 sequence (P05177 whole entry): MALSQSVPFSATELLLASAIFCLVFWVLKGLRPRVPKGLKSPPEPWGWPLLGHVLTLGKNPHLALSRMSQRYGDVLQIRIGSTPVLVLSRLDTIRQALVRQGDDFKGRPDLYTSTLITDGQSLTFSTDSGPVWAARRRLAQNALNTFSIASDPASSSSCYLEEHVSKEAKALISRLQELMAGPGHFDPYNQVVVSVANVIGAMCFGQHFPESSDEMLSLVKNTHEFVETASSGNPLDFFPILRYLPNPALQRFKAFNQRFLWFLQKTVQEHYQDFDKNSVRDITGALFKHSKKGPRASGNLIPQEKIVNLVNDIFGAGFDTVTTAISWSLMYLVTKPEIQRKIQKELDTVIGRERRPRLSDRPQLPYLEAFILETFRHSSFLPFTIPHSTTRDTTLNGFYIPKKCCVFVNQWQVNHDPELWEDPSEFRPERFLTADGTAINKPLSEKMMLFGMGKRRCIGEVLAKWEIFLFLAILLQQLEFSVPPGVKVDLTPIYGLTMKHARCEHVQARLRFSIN

cells = type: functional
[2] = target: Luciferin 4-monooxygenase (Photinus pyralis, UniProt P08659); assay: firefly luciferase enzyme inhibitors, dose response, biochemical, luminescence (AID 1891)
[3] = Luminescence Cell-Based Dose Confirmation HTS to Identify Inhibitors of Platelet Dense Granule Release. [Related pubchem assays: 1663 (Primary HTS), 1678 (Summary of Project)]; type: functional
Cytochrome P450 3A4 = Cytochrome P450 3A4 (Homo sapiens, UniProt P08684);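 further: CYP3A4 tested as one member of a cytochrome P450 panel screen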
[4] = Luminescence Cell-Based Dose Retest to Confirm Inhibitors of Cancer Stem Cells. [Related pubchem assays (depositor defined):AID2717, AID2721]; type: functional; details: Homo sapiens
[5] = Shn3 3'UTR reporter inhibitors, dose response, cell-based, Clone20 osteoblasts, firefly luciferase, cherry-picked (AID 624132); type: functional;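 further: firefly luciferase luminescence from reporter carrying the Shn3 3'UTR in osteoblasts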
[6] = target: T4, Corticotropin-releasing factor receptor 2/Corticotropin-releasing factor-binding protein (Homo sapiens, UniProt P24387+Q13324); assay: activators of CRF receptor 2 with binding protein – uHTS hits, confirmation (AID 602473); type: functional; details: read-out: EC50_Mean
T4 sequence (Q13324 whole entry): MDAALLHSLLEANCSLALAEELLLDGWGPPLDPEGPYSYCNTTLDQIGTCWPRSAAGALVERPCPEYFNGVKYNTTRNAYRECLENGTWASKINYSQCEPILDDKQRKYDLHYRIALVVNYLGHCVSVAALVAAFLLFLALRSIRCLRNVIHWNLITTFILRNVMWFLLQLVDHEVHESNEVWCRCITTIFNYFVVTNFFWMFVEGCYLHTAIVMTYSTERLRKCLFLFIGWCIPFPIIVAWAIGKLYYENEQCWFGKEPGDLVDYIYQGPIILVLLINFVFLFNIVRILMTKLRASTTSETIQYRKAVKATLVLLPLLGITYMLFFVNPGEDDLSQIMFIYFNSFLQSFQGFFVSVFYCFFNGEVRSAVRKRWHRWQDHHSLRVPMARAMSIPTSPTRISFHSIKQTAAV
T4 sequence (P24387 whole entry): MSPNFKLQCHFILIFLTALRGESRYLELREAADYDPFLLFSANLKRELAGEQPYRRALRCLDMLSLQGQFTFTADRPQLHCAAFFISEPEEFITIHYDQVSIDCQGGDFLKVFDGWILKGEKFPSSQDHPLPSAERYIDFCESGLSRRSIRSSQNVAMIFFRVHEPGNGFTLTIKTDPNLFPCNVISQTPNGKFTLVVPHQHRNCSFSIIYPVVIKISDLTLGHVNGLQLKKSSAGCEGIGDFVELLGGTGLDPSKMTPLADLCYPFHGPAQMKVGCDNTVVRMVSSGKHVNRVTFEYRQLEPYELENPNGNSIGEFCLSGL

[7] = test system: Streptococcus sp. 'group A'; assay: growth inhibition of control SK(-) GAS strain, dose response, counter-screen for streptokinase expression inhibitor project, luminescence, kanamycin, BacTiterGlo, confirmation (AID 1900); type: functional, organism-based
Streptokinase A = target: T5, Streptokinase A (Streptococcus pyogenes serotype M1, UniProt P10520); assay: S. pyogenes streptokinase expression inhibitors, potency, dose response, plasminogen activation absorbance, OD405 (AID 1914); type: functional, Streptococcus pyogenes M1 GAS;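 further: secreted streptokinase activity via plasminogen activation per viability signal from cell pellet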
T5 sequence (P10520 whole entry): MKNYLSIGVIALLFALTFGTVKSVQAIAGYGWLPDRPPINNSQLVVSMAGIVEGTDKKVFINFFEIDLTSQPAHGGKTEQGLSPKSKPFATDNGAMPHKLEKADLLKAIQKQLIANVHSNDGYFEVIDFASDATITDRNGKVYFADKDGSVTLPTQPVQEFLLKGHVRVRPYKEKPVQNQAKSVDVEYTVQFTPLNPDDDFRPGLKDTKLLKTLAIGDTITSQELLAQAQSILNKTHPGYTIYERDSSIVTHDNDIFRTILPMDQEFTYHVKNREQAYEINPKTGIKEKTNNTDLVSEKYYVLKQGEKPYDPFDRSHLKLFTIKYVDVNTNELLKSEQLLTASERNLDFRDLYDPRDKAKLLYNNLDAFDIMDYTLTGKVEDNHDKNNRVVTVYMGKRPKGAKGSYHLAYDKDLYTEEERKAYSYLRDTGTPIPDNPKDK

Streptococcus = assay: Group A Streptococcus viability loss, dose response, counter-screen for streptokinase expression inhibitor project, luminescence, BacTiterGlo (AID 1915); type: functional, organism-based;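 further: potency for reduction of bacterial viability or growth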

Chain of Cytochrome P450 2D6 (P10635 whole entry): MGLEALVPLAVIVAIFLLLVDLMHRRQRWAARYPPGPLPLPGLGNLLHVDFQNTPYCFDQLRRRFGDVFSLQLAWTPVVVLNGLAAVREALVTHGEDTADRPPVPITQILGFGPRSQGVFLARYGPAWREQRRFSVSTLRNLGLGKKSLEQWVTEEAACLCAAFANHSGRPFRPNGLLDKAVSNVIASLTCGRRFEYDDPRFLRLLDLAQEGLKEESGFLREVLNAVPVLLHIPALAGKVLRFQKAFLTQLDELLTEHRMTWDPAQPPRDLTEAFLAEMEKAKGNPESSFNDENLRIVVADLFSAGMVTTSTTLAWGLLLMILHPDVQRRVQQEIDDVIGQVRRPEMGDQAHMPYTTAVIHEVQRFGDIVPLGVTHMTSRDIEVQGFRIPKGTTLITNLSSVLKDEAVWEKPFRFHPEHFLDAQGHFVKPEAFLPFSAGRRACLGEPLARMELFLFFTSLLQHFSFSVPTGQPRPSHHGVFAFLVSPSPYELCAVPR
Chain of Luciferin 4-monooxygenase (P08659 whole entry): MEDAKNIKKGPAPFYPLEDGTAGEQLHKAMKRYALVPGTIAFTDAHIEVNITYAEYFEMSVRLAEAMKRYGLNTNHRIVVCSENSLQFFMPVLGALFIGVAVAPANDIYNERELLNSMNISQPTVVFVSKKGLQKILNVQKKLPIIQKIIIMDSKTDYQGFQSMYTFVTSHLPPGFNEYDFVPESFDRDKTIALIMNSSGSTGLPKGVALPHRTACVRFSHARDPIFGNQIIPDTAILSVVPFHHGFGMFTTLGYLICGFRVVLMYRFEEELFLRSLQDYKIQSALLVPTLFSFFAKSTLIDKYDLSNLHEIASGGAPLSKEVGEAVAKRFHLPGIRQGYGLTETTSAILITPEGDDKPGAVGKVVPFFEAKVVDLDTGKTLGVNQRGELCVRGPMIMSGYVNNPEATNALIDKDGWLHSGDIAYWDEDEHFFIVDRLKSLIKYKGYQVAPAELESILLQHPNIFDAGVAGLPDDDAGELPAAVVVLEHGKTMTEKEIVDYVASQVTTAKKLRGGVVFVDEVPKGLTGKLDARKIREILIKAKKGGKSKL
Chain of Cytochrome P450 3A4 (P08684 whole entry): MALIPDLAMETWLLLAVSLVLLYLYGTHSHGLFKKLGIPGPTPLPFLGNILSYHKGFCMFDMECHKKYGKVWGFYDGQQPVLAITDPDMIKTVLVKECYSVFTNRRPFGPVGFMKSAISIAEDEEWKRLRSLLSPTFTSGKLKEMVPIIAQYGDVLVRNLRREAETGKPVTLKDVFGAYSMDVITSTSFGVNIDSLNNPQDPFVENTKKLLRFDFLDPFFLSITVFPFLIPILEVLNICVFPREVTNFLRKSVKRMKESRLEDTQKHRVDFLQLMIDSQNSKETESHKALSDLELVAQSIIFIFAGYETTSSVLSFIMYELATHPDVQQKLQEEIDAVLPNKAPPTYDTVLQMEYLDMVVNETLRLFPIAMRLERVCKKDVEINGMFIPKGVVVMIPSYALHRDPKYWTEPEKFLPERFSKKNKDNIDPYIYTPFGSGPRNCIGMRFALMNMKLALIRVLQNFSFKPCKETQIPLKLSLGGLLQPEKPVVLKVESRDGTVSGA
Chain of Cytochrome P450 2C19 (P33261 whole entry): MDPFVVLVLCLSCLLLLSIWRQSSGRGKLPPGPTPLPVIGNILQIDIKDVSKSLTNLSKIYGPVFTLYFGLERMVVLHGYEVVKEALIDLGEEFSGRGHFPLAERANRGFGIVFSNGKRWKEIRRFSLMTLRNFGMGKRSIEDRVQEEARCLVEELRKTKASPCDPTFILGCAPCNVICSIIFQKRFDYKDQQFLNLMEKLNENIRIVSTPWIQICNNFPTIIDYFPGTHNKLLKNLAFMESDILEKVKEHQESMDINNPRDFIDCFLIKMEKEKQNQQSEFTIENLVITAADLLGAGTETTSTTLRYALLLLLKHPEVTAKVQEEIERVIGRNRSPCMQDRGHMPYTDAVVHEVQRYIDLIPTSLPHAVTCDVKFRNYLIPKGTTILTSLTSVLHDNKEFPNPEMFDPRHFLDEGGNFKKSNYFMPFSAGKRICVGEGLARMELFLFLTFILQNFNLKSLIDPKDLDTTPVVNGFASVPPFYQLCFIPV

SMILES: Cc1ccc(NC(=O)CSc2nsc(SCC(=O)Nc3ccc(C)cc3C)c2C#N)c(C)c1
- IC50 [1]: > 50 µM (not active)

SMILES: O=C(N/N=C/c1cccnc1)c1ccc([N+](=O)[O-])cc1
- AC50 (Cytochrome P450 2D6): 14.1 µM (inconclusive)

SMILES: COc1ccc(C(NC(=O)c2ccc(-c3ccccc3)cc2)c2ccccc2)cc1 (centres undefined)
- IC50 [1]: > 50 µM (not active)

SMILES: COC(=O)c1cc2sccc2n1Cc1ccc(C)cc1
- IC50 (Protein skinhead-1): > 100 µM (inactive)

SMILES: CC1(C)N=C(N)N=C(N)N1c1cccc(OCc2cccc([N+](=O)[O-])c2)c1
- AC50 (Cytochrome P450 2C19): inconclusive
- AC50 (Cytochrome P450 2D6): 3.16 µM (inconclusive)
- AC50 (Cytochrome P450 1A2): 5.01 µM (inconclusive)

SMILES: CCn1nc(CCC(=O)O)c2ccccc2c1=O
- IC50 (Protein skinhead-1): > 100 µM (inactive)

SMILES: O=c1c2ccccc2ncn1-c1ccc(Cl)cc1Cl
- IC50 (Protein skinhead-1): > 100 µM (inactive)

SMILES: O=C(CCN1CCC(c2ccccc2)C1)c1ccccc1 (centres undefined)
- IC50 (cells): 31.7 µM (active)

SMILES: CN(CCc1ccccn1)C(=S)NC(=O)c1ccco1
- IC50 [1]: 19 µM (not active)

SMILES: CN(C)c1ccc(-c2cncnc2NCc2cccs2)cc1
- AC50 (Cytochrome P450 2D6): 39.8 µM (inconclusive)

SMILES: O=C(NC1CCCCC1)N1CCC(c2nc(-c3ccc(S(=O)(=O)N4CCCC4)cc3)no2)CC1
- EC50 [2]: > 112 µM (not active)
- EC50 [3]: > 112 µM (not active)

SMILES: Cc1c(Cl)cccc1NC(=O)CC1NCCNC1=O (centres undefined)
- AC50 (Cytochrome P450 2C19; read-out: AC50): 39.8 µM (inconclusive)
- IC50 (Protein skinhead-1): > 100 µM (inactive)
- AC50 (Cytochrome P450 3A4): 20 µM (inconclusive)

SMILES: O=S(=O)(Nc1ccc(-c2ccc3nncn3n2)cc1)c1ccccc1Cl
- EC50 [2]: > 112 µM (not active)
- EC50 [3]: 51.9 µM (active)

SMILES: Cc1cc(/C=C(\C#N)C(=O)Nc2ccc(F)cc2)c(C)n1-c1ccc(N2CCOCC2)c([N+](=O)[O-])c1
- IC50 (Protein skinhead-1): > 100 µM (inactive)

SMILES: CCN(CC(=O)NCc1ccc(F)cc1)Cc1nc(O)c2ccc(Cl)cc2n1
- IC50 (Protein skinhead-1): > 100 µM (inactive)

SMILES: O=c1cc(N2CCCCC2)c(-c2ccccc2)nn1Cc1cccc(F)c1
- IC50 [1]: > 50 µM (not active)
- AC50 [4]: 4.74 µM (active)

SMILES: Cc1ccc(CNC(=O)c2ccc3c(=O)n(CC4CCCO4)c(=S)[nH]c3c2)cc1 (centres undefined)
- IC50 [1]: 1.19 µM (not active)

SMILES: O=C(NCCCN1CCOCC1)C1(c2ccccc2)CCCC1
- EC50 [2]: > 112 µM (not active)
- EC50 [3]: > 112 µM (not active)

SMILES: CC(C)c1onc(C(=O)Nc2cccnc2Cl)c1[N+](=O)[O-]
- IC50 [1]: 22.5 µM (not active)

SMILES: Cc1ccc(C)c(N2CCN(S(=O)(=O)c3ccc4nc(O)ccc4c3)CC2)c1
- AC50 [5]: 24.2 µM (active)

SMILES: CC(/C=C(\O)c1ccc(C)cc1)=N\c1cccc(O)c1
- IC50 [1]: 4.68 µM (not active)

SMILES: Clc1ccc(CNc2ccc3nnc(-c4ccccc4)n3n2)cc1
- EC50 [2]: > 112 µM (not active)
- EC50 [3]: > 112 µM (not active)

SMILES: O=C(CCCCl)Oc1ccc2cc(-c3ccc4ccccc4n3)c(=O)oc2c1
- EC50 [6]: 13.7 µM (active)

SMILES: CSc1nnc(C)c(/C=C/Nc2ccc(C)cc2)n1
- EC50 [6]: 14.9 µM (active)

SMILES: CNC(=O)c1c(NC(=O)c2ccc(N3C(=O)CCC3=O)cc2)sc2c1CCC(C)C2 (centres undefined)
- EC50 [7]: 20.7 µM (active)
- EC50 (Streptokinase A): > 150 µM (not active)
- EC50 (Streptococcus): 103 µM (active)
- IC50 (Protein skinhead-1): > 100 µM (inactive)

SMILES: CCOc1ccc(Nc2ccc([N+](=O)[O-])c3nonc23)cc1
- IC50 (cells): 5.59 µM (active)
- IC50 (Protein skinhead-1): > 100 µM (inactive)

SMILES: CCCN1CCc2cccc3c2[C@@H]1Cc1ccc(O)c(O)c1-3
- AC50 (Cytochrome P450 2D6): 10 µM (inconclusive)
- AC50 (Cytochrome P450 3A4): 12.6 µM (inconclusive)

SMILES: COc1ccc2[nH]cc(CCNc3ncnc4ccc(-c5ccc(C(=O)N(C)C)cc5)cc34)c2c1
- AC50 (Cytochrome P450 2D6): 25.1 µM (inconclusive)
- AC50 (Cytochrome P450 1A2): 12.6 µM (inconclusive)

SMILES: O=C(c1ccc(F)cc1)c1cc2ccc(O)cc2oc1=O
- EC50 [7]: 10.7 µM (active)
- EC50 [2]: 0.731 µM (active)
- EC50 [3]: 0.457 µM (active)
- EC50 (Streptococcus): 15.7 µM (active)

SMILES: O=C(O)[C@@H]1[C@@H]2C[C@H]3c4[nH]c5ccccc5c4CCN3C[C@@H]2CC[C@@H]1O
- AC50 (Cytochrome P450 2D6): 7.94 µM (inconclusive)
- AC50 (Cytochrome P450 1A2): 12.6 µM (inconclusive)

SMILES: COc1ccc(C2=Nc3cccc4cccc(c34)N2)cc1
- AC50 (Cytochrome P450 2D6): 1.41 µM (inconclusive)

SMILES: NS(=O)(=O)c1ccc(CCNC(=O)COC(=O)CCc2c[nH]c3ccccc23)cc1
- EC50 [6]: 22 µM (active)

SMILES: Cc1ccc2nc(C)c3c(c2c1)COC3
- IC50 (cells): > 50 µM (active)

SMILES: CSc1nc2c(c(-c3ccc(O)cc3)c1C#N)CCC2
- EC50 [2]: > 112 µM (not active)
- EC50 [3]: > 112 µM (not active)

SMILES: Cc1ccc(/C=C2/C(=O)NC(=O)N(CCc3ccc(F)cc3)C2=O)s1
- IC50 (cells): 39.2 µM (active)

SMILES: Cc1ccccc1C(=O)NC(CC(C)C)C(=O)Nc1ccc(S(N)(=O)=O)cc1 (centres undefined)
- EC50 [2]: > 112 µM (not active)
- EC50 [3]: > 112 µM (not active)

SMILES: COc1ccc(/C=N/N=C(\N)c2nonc2N)cc1
- EC50 [2]: 3.82 µM (active)
- EC50 [3]: 2.67 µM (active)

Reference: ChEMBL document CHEMBL1201862, “PubChem BioAssay data set” (2004)
